From US9771372B2, “Compounds useful as S100-inhibitors” (Active Biotech AB, priority 2014, dated 2017)

target: T1, interaction between biotinylated human S100A9 and human RAGE-Fc (Homo sapiens, UniProt P06702); assay: AlphaScreen inhibition assay, Biot-hS100A9:hRAGE-Fc (S100A9-RAGE inhibition assay); assay type: binding; conditions: biot-hS100A9 and rhRAGE-Fc, Ca2+ and Zn2+ in buffer
T1 construct: made in house; host or cells: E. coli BL21(DE3)/pET1120 (pLR757)
T1 sequence (P06702 1-114): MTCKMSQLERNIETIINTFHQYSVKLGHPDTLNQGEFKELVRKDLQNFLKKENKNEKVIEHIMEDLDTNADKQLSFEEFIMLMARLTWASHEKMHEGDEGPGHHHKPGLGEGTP
Summary of the method: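 Biotinylated human S100A9, in HBS-P with CaCl2 and ZnCl2, preincubated 1 h at room temperature in the dark with compound (final DMSO ≤1.25%), then combined with rhRAGE-Fc on protein A Acceptor beads plus streptavidin Donor beads (20 μg/mL each). Protein levels batch-dependent; percent inhibition from AlphaScreen signal vs DMSO-only control.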

Row | IC50 | Structure (SMILES)
1 | 5600 nM | Cc1cccc2c1nc1n2C(NC(=O)CCC2CCCC2)(C(F)(F)F)C(=O)N1 (stereo not drawn) [Example 81, 3-cyclopentyl-N-[9-methyl-4-oxo-3-(trifluoromethyl)-2,5,7-triazatricyclo[6.4.0.0^2,6]dodeca-1(12),6,8,10-tetraen-3-yl]propanamide]
2 | 600 nM | O=C(CCC1CCCC1)NC1(C(F)(F)F)C(=O)Nc2nc3c(Cl)c(Cl)ccc3n21 (stereo not drawn) [Example 83, 3-cyclopentyl-N-[9,10-dichloro-4-oxo-3-(trifluoromethyl)-2,5,7-triazatricyclo[6.4.0.0^2,6]-dodeca-1(12),6,8,10-tetraen-3-yl]propanamide]
3 | 1450 nM | O=C(CCC1CCCC1)NC1(C(F)(F)F)C(=O)Nc2nc3c(Br)cc(Cl)cc3n21 (stereo not drawn) [Example 181, N-[9-bromo-11-chloro-4-oxo-3-(trifluoromethyl)-2,5,7-triazatricyclo[6.4.0.0^2,6]dodeca-1(12),6,8,10-tetraen-3-yl]-3-cyclopentylpropanamide]
4 | 4700 nM | COCC(=O)N1CCC(C(=O)NC2(C(F)(F)F)C(=O)Nc3nc4cc(Cl)c(Cl)cc4n32)CC1 (stereo not drawn) [Example 44, N-[10,11-dichloro-4-oxo-3-(trifluoromethyl)-2,5,7-triazatricyclo[6.4.0.0^2,6]dodeca-1(12),6,8,10-tetraen-3-yl]-1-(2-methoxyacetyl)piperidine-4-carboxamide]
5 | 10100 nM | CC(=O)c1cccc2c1nc1n2C(NC(=O)CCC2CCCC2)(C(F)(F)F)C(=O)N1 (single isomer, unassigned) [Example 224b, N-[9-acetyl-4-oxo-3-(trifluoromethyl)-2,5,7-triazatricyclo[6.4.0.0^2,6]dodeca-1(12),6,8,10-tetraen-3-yl]-3-cyclopentylpropanamide]
6 | 4000 nM | COCCNc1cccc(C(=O)NC2(C(F)(F)F)C(=O)Nc3nc4cc(C)c(C)cc4n32)n1 (single isomer, unassigned) [Example 220b, N-[10,11-dimethyl-4-oxo-3-(trifluoromethyl)-2,5,7-triazatricyclo[6.4.0.0^2,6]dodeca-1(12),6,8,10-tetraen-3-yl]-6-[(2-methoxyethyl)amino]pyridine-2-carboxamide]
7 | 1970 nM | O=C(CCC1CCCC1)NC1(C(F)(F)F)C(=O)Nc2nc3c(-c4ccccc4O)cccc3n21 (stereo not drawn) [Example 198, 3-cyclopentyl-N-[9-(2-hydroxyphenyl)-4-oxo-3-(trifluoromethyl)-2,5,7-triazatricyclo[6.4.0.0^2,6]dodeca-1(12),6,8,10-tetraen-3-yl]propanamide]
8 | 3970 nM | O=C(NC1(C(F)(F)F)C(=O)Nc2nc3cc(Cl)c(Cl)cc3n21)C1(F)CNC1 (stereo not drawn) [Example 103, N-[10,11-dichloro-4-oxo-3-(trifluoromethyl)-2,5,7-triazatricyclo[6.4.0.0^2,6]dodeca-1(8),6,9,11-tetraen-3-yl]-3-fluoroazetidine-3-carboxamide]
9 | 4300 nM | Cc1cc2c(nc3n2C(NC(=O)c2ccccc2)(C(F)(F)F)C(=O)N3)c(Br)c1C (stereo not drawn) [Example 77, N-[9-bromo-10,11-dimethyl-4-oxo-3-(trifluoromethyl)-2,5,7-triazatricyclo[6.4.0.0^2,6]dodeca-1(8),6,9,11-tetraen-3-yl]benzamide]
10 | 700 nM | Cc1ccc(-c2cccc3c2nc2n3C(NC(=O)CCC3CCCC3)(C(F)(F)F)C(=O)N2)cc1 (stereo not drawn) [Example 202, 3-cyclopentyl-N-[9-(4-methylphenyl)-4-oxo-3-(trifluoromethyl)-2,5,7-triazatricyclo[6.4.0.0^2,6]dodeca-1(12),6,8,10-tetraen-3-yl]propanamide]
11 | 700 nM | O=C(NC1(C(F)(F)F)C(=O)Nc2nc3cc(Cl)c(Cl)cc3n21)C1CN(c2ccccn2)C1 (stereo not drawn) [Example 52, N-[10,11-dichloro-4-oxo-3-(trifluoromethyl)-2,5,7-triazatricyclo[6.4.0.0^2,6]dodeca-1(12),6,8,10-tetraen-3-yl]-1-(pyridin-2-yl)azetidine-3-carboxamide]
12 | 1610 nM | O=C(CCC1(O)CCCC1)NC1(C(F)(F)F)C(=O)Nc2nc3cc(Cl)c(Cl)cc3n21 (stereo not drawn) [Example 88, N-[10,11-dichloro-4-oxo-3-(trifluoromethyl)-2,5,7-triazatricyclo[6.4.0.0^2,6]dodeca-1(8),6,9,11-tetraen-3-yl]-3-(1-hydroxycyclopentyl)propanamide]
13 | 1430 nM | O=C(CCC1CCCC1)NC1(C(F)(F)F)C(=O)Nc2nc3c(NS(=O)(=O)C4CC4)cccc3n21 (stereo not drawn) [Example 165, 3-cyclopentyl-N-[9-cyclopropanesulfonamido-4-oxo-3-(trifluoromethyl)-2,5,7-triazatricyclo[6.4.0.0^2,6]dodeca-1(12),6,8,10-tetraen-3-yl]propanamide]
14 | 4900 nM | O=C(CCC1CCCCN1)NC1(C(F)(F)F)C(=O)Nc2nc3cc(Cl)c(Cl)cc3n21 (stereo not drawn) [Example 69, N-[10,11-dichloro-4-oxo-3-(trifluoromethyl)-2,5,7-triazatricyclo[6.4.0.0^2,6]dodeca-1(12),6,8,10-tetraen-3-yl]-3-(piperidin-2-yl)propanamide]
15 | 400 nM | O=C(NC1(C(F)(F)F)C(=O)Nc2nc3cc(Cl)c(Cl)cc3n21)c1cccc(NC2CCCCC2)n1 (stereo not drawn) [Example 66, 6-(cyclohexylamino)-N-[10,11-dichloro-4-oxo-3-(trifluoromethyl)-2,5,7-triazatricyclo-[6.4.0.0^2,6]dodeca-1(12),6,8,10-tetraen-3-yl]pyridine-2-carboxamide]
16 | 3700 nM | Cc1cc2nc3n(c2cc1C)C(NC(=O)c1ccc(Cl)nc1)(C(F)(F)F)C(=O)N3 (stereo not drawn) [Example 28, 6-chloro-N-[10,11-dimethyl-4-oxo-3-(trifluoromethyl)-2,5,7-triazatricyclo[6.4.0.0^2,6]-dodeca-1(12),6,8,10-tetraen-3-yl]pyridine-3-carboxamide]
17 | 1400 nM | Cc1cc2nc3n(c2cc1C)C(NC(=O)CCc1ccccc1)(C(F)(F)F)C(=O)N3 (stereo not drawn) [Example 15, N-[10,11-dimethyl-4-oxo-3-(trifluoromethyl)-2,5,7-triazatricyclo[6.4.0.0^2,6]dodeca-1(8),6,9,11-tetraen-3-yl]-3-phenylpropanamide]
18 | 1600 nM | O=C(NC1(C(F)(F)F)C(=O)Nc2nc3cc(Cl)c(Cl)cc3n21)C1CCCC1 (stereo not drawn) [Example 54, N-[10,11-dichloro-4-oxo-3-(trifluoromethyl)-2,5,7-triazatricyclo[6.4.0.0^2,6]dodeca-1(12),6,8,10-tetraen-3-yl]cyclopentanecarboxamide]
19 | 190 nM | O=C(NC1(C(F)(F)F)C(=O)Nc2nc3cc(Cl)c(Cl)cc3n21)c1cccc(CO)n1 (stereo not drawn) [Example 97, N-[10,11-dichloro-4-oxo-3-(trifluoromethyl)-2,5,7-triazatricyclo[6.4.0.0^2,6]dodeca-1(8),6,9,11-tetraen-3-yl]-6-(hydroxymethyl)pyridine-2-carboxamide]
20 | 2260 nM | O=C(CCC1CCCC1)NC1(C(F)(F)F)C(=O)Nc2nc3c(C(F)(F)F)cc(Br)cc3n21 (stereo not drawn) [Example 129, N-[11-bromo-4-oxo-3,9-bis(trifluoromethyl)-2,5,7-triazatricyclo[6.4.0.0^2,6]dodeca-1(8),6,9,11-tetraen-3-yl]-3-cyclopentylpropanamide]
21 | 950 nM | COc1cccc(-c2cccc3c2nc2n3C(NC(=O)CCC3CCCC3)(C(F)(F)F)C(=O)N2)c1 (stereo not drawn) [Example 189, 3-cyclopentyl-N-[9-(3-methoxyphenyl)-4-oxo-3-(trifluoromethyl)-2,5,7-triazatricyclo[6.4.0.0^2,6]dodeca-1(12),6,8,10-tetraen-3-yl]propanamide]
22 | 580 nM | COc1ccc(-c2cccc3c2nc2n3C(NC(=O)CCC3CCCC3)(C(F)(F)F)C(=O)N2)cc1 (stereo not drawn) [Example 186, 3-cyclopentyl-N-[9-(4-methoxyphenyl)-4-oxo-3-(trifluoromethyl)-2,5,7-triazatricyclo[6.4.0.0^2,6]dodeca-1(12),6,8,10-tetraen-3-yl]propanamide]
23 | 4020 nM | O=C(CCN1CC(F)(F)C1)NC1(C(F)(F)F)C(=O)Nc2nc3cc(Cl)c(Cl)cc3n21 (stereo not drawn) [Example 104, N-[10,11-dichloro-4-oxo-3-(trifluoromethyl)-2,5,7-triazatricyclo[6.4.0.0^2,6]dodeca-1(8),6,9,11-tetraen-3-yl]-3-(3,3-difluoroazetidin-1-yl)propanamide]
24 | 3300 nM | O=C(NC1(C(F)(F)F)C(=O)Nc2nc3cc(Cl)c(Cl)cc3n21)C1CC2(CNC2)C1 (stereo not drawn) [Example 40, N-[10,11-dichloro-4-oxo-3-(trifluoromethyl)-2,5,7-triazatricyclo[6.4.0.0^2,6]dodeca-1(12),6,8,10-tetraen-3-yl]-2-azaspiro[3.3]heptane-6-carboxamide]
25 | 4000 nM | Cc1cc2nc3n(c2cc1C)C(NC(=O)c1ccc(OCC(F)(F)F)nc1)(C(F)(F)F)C(=O)N3 (stereo not drawn) [Example 21, N-[10,11-dimethyl-4-oxo-3-(trifluoromethyl)-2,5,7-triazatricyclo[6.4.0.0^2,6]dodeca-1(8),6,9,11-tetraen-3-yl]-6-(2,2,2-trifluoroethoxy)pyridine-3-carboxamide]
26 | 3000 nM | CC(C)CC(=O)N1CCC(C(=O)NC2(C(F)(F)F)C(=O)Nc3nc4cc(Cl)c(Cl)cc4n32)CC1 (stereo not drawn) [Example 45, N-[10,11-dichloro-4-oxo-3-(trifluoromethyl)-2,5,7-triazatricyclo[6.4.0.0^2,6]dodeca-1(12),6,8,10-tetraen-3-yl]-1-(3-methylbutanoyl)piperidine-4-carboxamide]
27 | 600 nM | CN(C)CCNc1cccc(C(=O)NC2(C(F)(F)F)C(=O)Nc3nc4cc(Cl)c(Cl)cc4n32)n1 (stereo not drawn) [Example 93, N-[10,11-dichloro-4-oxo-3-(trifluoromethyl)-2,5,7-triazatricyclo[6.4.0.0^2,6]dodeca-1(8),6,9,11-tetraen-3-yl]-6-{[2-(dimethylamino)ethyl]amino}pyridine-2-carboxamide]
